In publication PMC10016038, “Enhanced Endosomal Signaling and Desensitization of GLP-1R vs GIPR in Pancreatic Beta Cells” (Endocrinology, 2023):
Ends that are not written are not given here.

Tests used:
SNAP-tagged human GIPR [1] = experiment: TMR agonist intracellular accumulation, INS-1 832/3 SNAP-GIPR; format: cell-based; settings: 5 minutes poststimulation
Method: (§1) Finally, using alternative fluorescent conjugates labeled with TMR, the amount of TMR-labeled agonist intracellular accumulation during the first 5 minutes of stimulation for each receptor correlated with the previously shown receptor internalization results in INS-1 832/3 SNAP-GLP-1R/SNAP-GIPR cell lines (Supplemental Fig. 3A and 3B) ([32]).

[2] = tested on: endogenous GIPR in mouse islets; experiment: Confocal imaging of TMR agonist in mouse primary islets, GIPR; format: cell-based
Method: (§2) Nondiabetic mice of both sexes were used for islet isolation. Briefly, pancreata were infused via the common bile duct with RPMI-1640 medium containing 1 mg/mL collagenase from Clostridium histolyticum (Nordmark Biochemicals), dissected, and incubated in a water bath at 37 °C for 10 minutes. Islets were subsequently washed and purified using a Histopaque gradient (Histopaque-1119, 11191, Sigma-Aldrich, and Histopaque-1083, 10831, Sigma-Aldrich). Isolated islets were allowed to recover overnight at 37 °C in 5% CO2 in RPMI-1640 supplemented with 10% FBS and 1% penicillin/streptomycin. All procedures were carried out in accordance with the regulations of the UK Home Office Animals (Scientific Procedures) Act and the Imperial College London guidelines for animal care. Animal protocols were approved by the Home Office Animals in Science Regulation Unit (ASRU) under Project License number PP7151519 to Dr. A. Martinez-Sanchez.
(§3) Figure 1. Beta cell GLP-1R vs GIPR trafficking patterns. […] (B) Rates of GLP-1R vs GIPR internalization (k values) derived from (A) by one-phase association (with Y0 = 0) of baseline-deleted DERET data; n = 5. (C) GLP-1R vs GIPR internalization dose response curves measured by high-content microscopy assay (HCA) in the same cells as above. […] (F) Quantification of surface GLP-1R vs GIPR levels in WT mouse islets using fluorescent agonist uptake data from (E); data corrected for binding affinity differences between both agonists; n = 4. (G) GLP-1R vs GIPR recycling dose response curves measured by high-content microscopy assay (HCA) in cells from (C); n = 5. […] Nuclei (DAPI), blue. Data are mean ± SEM, compared by paired or unpaired t tests, or two-way ANOVA with Sidak's post hoc test; *P < .05, **P < .01, ***P < .001; size bars: 10 µm.

GLP-1R = settings: tirzepatide; cited from earlier work
Source text: In summary, we have described here significant differences in the trafficking and spatiotemporal signaling propensities of the 2 incretin receptors following their stimulation with native agonists in beta cells. While the GLP-1R is a rapidly internalizing receptor with increased propensity for β-arrestin 2 recruitment, endosomal localization and activity, and lysosomal degradation, the GIPR is associated with reduced coupling to G proteins and β-arrestin 2, as well as reduced internalization and endosomal activity, increased recycling, and an overall increase in beta cell signaling despite hig ...

T2D patients = settings: dual GLP-1R/GIPR targeting peptides; cited from earlier work
Source text: Incretin receptors, comprising the glucagon-like peptide-1 receptor (GLP-1R) and the glucose-dependent insulinotropic polypeptide receptor (GIPR), are key components of the glucoregulatory system due to their capacity to prevent postprandial hyperglycemia by amplifying insulin secretion from pancreatic beta cells in a glucose-dependent manner ([1]). Since their discovery and cloning in the 1990s ([2-4]), both receptors have been recognized for their glucose lowering potential. However, while the GLP-1R has successfully been exploited for the treatment of type 2 diabetes (T2D), with several pha ...

[3] = tested on: endogenous GLP-1R in mouse islets; experiment: Confocal imaging of TMR agonist in mouse primary islets, GLP-1R; format: cell-based; settings: 100 nM GLP-1-TMR; 15 minutes
Method: as §2
Figure 1. […] (C) GLP-1R vs GIPR internalization dose response curves measured by high-content microscopy assay (HCA) in the same cells as above. […] (F) Quantification of surface GLP-1R vs GIPR levels in WT mouse islets using fluorescent agonist uptake data from (E); data corrected for binding affinity differences between both agonists; n = 4. (G) GLP-1R vs GIPR recycling dose response curves measured by high-content microscopy assay (HCA) in cells from (C); n = 5. […]

SNAP-tagged human GIPR [4] = experiment: Confocal microscopy of co-internalization with FITC agonist, SNAP-GIPR; format: cell-based
Source text: as §3, §1

## GIP-TMR: tetramethylrhodamine (TMR) conjugate of GIP(1-42) (YAEGTFISDYSIAMDKIHQQDFVNWLLAQKGKKNDWKHNITQ; also: TMR conjugate, position not given here)
SNAP-tagged human GIPR [1]
  Intracellular accumulation of TMR-labeled agonist: negligible
[2]; 100 nM, not shown
  GIP-TMR signal in islets at 100 nM: virtually undetectable
[2]; 1 µM GIP-TMR, 15 minutes
  Localization of TMR agonist in WT mouse primary islets: could be detected at the plasma membrane
[2]; dispersed mouse islet cells
  GIP-TMR uptake compared with GLP-1-TMR, dispersed mouse islet cells: markedly reduced
[2]; quantified in Fig. 1F, corrected for binding affinity differences, n = 4
  TMR agonist signal in WT islets, GIP-TMR vs GLP-1-TMR: significantly lower
[2]; same concentration of GIP-TMR as WT (1 µM), specificity control
  GIP-TMR signal at the plasma membrane, Gipr-/- (KO) islets: absent

## tirzepatide
GLP-1R
  Internalization and β-arrestin 2 recruitment at the GLP-1R: reduced internalization and β-arrestin 2 recruitment at the GLP-1R
T2D patients
  Efficacy compared with approved GLP-1R agonist monotherapies: enhanced efficacy

## GLP-1-TMR: tetramethylrhodamine (TMR) conjugate of GLP-1(7-36)NH2 (HAEGTFTSDVSSYLEGQAAKEFIAWLVKGR-NH2; also: TMR conjugate, position not given here)
[3]
  Localization of TMR agonist in WT mouse primary islets: predominantly localized in punctate structures reminiscent of endosomes

## GIP-FITC: fluorescein isothiocyanate (FITC) conjugate of GIP(1-42) (YAEGTFISDYSIAMDKIHQQDFVNWLLAQKGKKNDWKHNITQ; also: FITC conjugate, position not given here)
SNAP-tagged human GIPR [4]; 30 min, 100 nM GIP-FITC
  SNAP-GIPR endocytosis: only partial SNAP-GIPR endocytosis
SNAP-tagged human GIPR [4]; after 30 minutes of agonist stimulation
  Intracellular GIP-FITC signal accumulation: some intracellular GIP-FITC signal accumulation
